# According to ChEMBL document CHEMBL5506020 (J Med Chem, 2024):
# Activity calls are given as the source filed them. No cut-off for these calls is given here.
# Columns and labels:
# [1] = tested on: MV4-11; experiment: Downregulation of SMARCA4 protein level in human MV4-11 cells at 10 nM incubated for 6 hrs by proteomic analysis; type: functional, cell-based
# [2] = tested on: MV4-11; experiment: Downregulation of CDK5 protein in human MV4-11 cells at 10 nM incubated for 6 hrs by proteomic analysis; type: functional, cell-based
# [3] = Toxicity in NOD/SCID mouse xenografted with human MV4-11 cells assessed as effect on heart at 2 to 5 mg/kg, ip administered every other day for 2 weeks by H and E staining based assay; type: organism-based; settings: in vivo, 336 h, dose 2-5 mg/kg
# [4] = tested on: Mus musculus; experiment: In vivo induction of CBP degradation in NOD/SCID mouse tumor xenografted with human MV4-11 cells at 2 to 5 mg/kg, ip administered every other day for 2 weeks by immunoblotting analysis; type: functional, organism-based; settings: dose 2-5 mg/kg
# [5] = tested on: MV4-11; experiment: Downregulation of IKZF1 mRNA level in human MV4-11 cells at 100 nM incubated for 6 hrs by qRT-PCR analysis; type: functional, cell-based
# [6] = Toxicity in NOD/SCID mouse xenografted with human MV4-11 cells assessed as lymphocyte infiltration in liver at 2 to 5 mg/kg, ip administered every other day for 2 weeks by H and E staining based assay; type: organism-based; settings: in vivo, 336 h, dose 2-5 mg/kg
# [7] = tested on: MV4-11; experiment: Downregulation of TP53RK protein in human MV4-11 cells at 10 nM incubated for 6 hrs by proteomic analysis; type: functional, cell-based
# [8] = tested on: MV4-11; experiment: Downregulation of IRF4 protein in human MV4-11 cells at 10 nM incubated for 6 hrs by proteomic analysis; type: functional, cell-based
# [9] = tested on: MV4-11; experiment: Downregulation of BRD3 protein level in human MV4-11 cells at 10 nM incubated for 6 hrs by proteomic analysis; type: functional, cell-based
# [10] = tested on: MOLM-13; experiment: Antiproliferative activity against human MOLM-13 cells incubated for 72 hrs by Cell-Titer Glo assay; settings: MOLM-13, 72 h
# [11] = tested on: Mus musculus; experiment: In vivo induction of p300 degradation in NOD/SCID mouse tumor xenografted with human MV4-11 cells at 2 to 5 mg/kg, ip administered every other day for 2 weeks by immunoblotting analysis; type: functional, organism-based; settings: dose 2-5 mg/kg
# [12] = tested on: MV4-11; experiment: Downregulation of BRD2 protein level in human MV4-11 cells at 10 nM incubated for 6 hrs by proteomic analysis; type: functional, cell-based
# [13] = tested on: MV4-11; experiment: Downregulation of ZFP91 protein level in human MV4-11 cells at 10 nM incubated for 6 hrs by proteomic analysis; type: functional, cell-based
# [14] = tested on: MV4-11; experiment: Downregulation of STAT2 protein in human MV4-11 cells at 10 nM incubated for 6 hrs by proteomic analysis; type: functional, cell-based
# [15] = Toxicity in NOD/SCID mouse xenografted with human MV4-11 cells assessed as effect on kidney at 2 to 5 mg/kg, ip administered every other day for 2 weeks by H and E staining based assay; type: organism-based; settings: in vivo, 336 h, dose 2-5 mg/kg
# [16] = tested on: MOLM-13; experiment: Downregulation of c-Myc protein level in human MOLM-13 cells at 50 nM incubated for 24 hrs by Western blotting analysis; type: functional, cell-based
# [17] = tested on: MV4-11; experiment: Antiproliferative activity against human MV4-11 cells incubated for 120 hrs by Cell-Titer Glo assay; settings: MV4-11, 120 h
# [18] = tested on: MV4-11; experiment: Antitumor activity against human MV4-11 cells xenografted in NOD-SCID mouse assessed as tumor growth inhibition at 5 mg/kg, ip administered every other day for 2 weeks; type: functional; settings: MV4-11, 336 h, read-out: TGI
# [19] = tested on: MV4-11; experiment: Downregulation of GSPT1 protein level in human MV4-11 cells at 10 nM incubated for 6 hrs by proteomic analysis; type: functional, cell-based
# [20] = tested on: THP-1; experiment: Antiproliferative activity against human THP-1 cells upto 10 uM; type: functional, cell-based
# [21] = tested on: MV4-11; experiment: Downregulation of p300 mRNA level in human MV4-11 cells at 100 nM incubated for 6 hrs by qRT-PCR analysis; type: functional, cell-based
# [22] = Toxicity in NOD/SCID mouse xenografted with human MV4-11 cells assessed as body weight loss at 2 to 5 mg/kg, ip administered every other day for 2 weeks; type: organism-based; settings: in vivo, 336 h, dose 2-5 mg/kg
# [23] = tested on: MV4-11; experiment: Downregulation of BRD4 protein level in human MV4-11 cells at 10 nM incubated for 6 hrs by proteomic analysis; type: functional, cell-based
# [24] = tested on: KG-1; experiment: Antiproliferative activity against human KG-1 cells upto 10 uM; type: functional, cell-based
# [25] = Antiproliferative activity against human MOLM16 cells incubated for 72 hrs by Cell-Titer Glo assay; settings: MOLM16, 72 h
# [26] = tested on: MV4-11; experiment: Downregulation of CBP mRNA level in human MV4-11 cells at 100 nM incubated for 6 hrs by qRT-PCR analysis; type: functional, cell-based
# [27] = tested on: MV4-11; experiment: Downregulation of STAT1 protein in human MV4-11 cells at 10 nM incubated for 6 hrs by proteomic analysis; type: functional, cell-based
# [28] = tested on: MV4-11; experiment: Downregulation of IKZF1 level in human MV4-11 cells at 10 uM incubated for 6 hrs by Western blotting analysis; type: functional, cell-based
# [29] = Toxicity in NOD/SCID mouse xenografted with human MV4-11 cells assessed as effect on lung at 2 to 5 mg/kg, ip administered every other day for 2 weeks by H and E staining based assay; type: organism-based; settings: in vivo, 336 h, dose 2-5 mg/kg
# [30] = tested on: MOLM-16; experiment: Downregulation of c-Myc protein level in human MOLM16 cells at 50 nM incubated for 24 hrs by Western blotting analysis; type: functional, cell-based
# [31] = tested on: EOL1; experiment: Antiproliferative activity against human EOL1 cells upto 10 uM; type: functional, cell-based
# [32] = tested on: MV4-11; experiment: Antitumor activity against human MV4-11 cells xenografted in NOD-SCID mouse assessed as tumor growth inhibition at 2 mg/kg, ip administered every other day for 2 weeks; type: functional; settings: MV4-11, 336 h, read-out: TGI
# [33] = tested on: MV4-11; experiment: Downregulation of c-Myc protein level in human MV4-11 cells at 50 nM incubated for 24 hrs by Western blotting analysis; type: functional, cell-based
# [34] = tested on: MV4-11; experiment: Downregulation of KRAS protein in human MV4-11 cells at 10 nM incubated for 6 hrs by proteomic analysis; type: functional, cell-based
# [35] = tested on: MV4-11; experiment: Downregulation of TRIM24 protein level in human MV4-11 cells at 10 nM incubated for 6 hrs by proteomic analysis; type: functional, cell-based
# [36] = Toxicity in NOD/SCID mouse xenografted with human MV4-11 cells assessed as aggregation of multinucleated giant cells in spleen at 2 to 5 mg/kg, ip administered every other day for 2 weeks by H and E staining based assay; type: organism-based; settings: in vivo, 336 h, dose 2-5 mg/kg
# [37] = Toxicity in NOD/SCID mouse xenografted with human MV4-11 cells assessed as lymphocyte infiltration in liver at 5 mg/kg, ip administered every other day for 2 weeks by H and E staining based assay; type: organism-based; settings: in vivo, 336 h
# [38] = tested on: Mus musculus; experiment: In vivo induction of CBP degradation in NOD/SCID mouse tumor xenografted with human MV4-11 cells at 5 mg/kg, ip administered every other day for 2 weeks by immunoblotting analysis; type: functional, organism-based
# [39] = Toxicity in NOD/SCID mouse xenografted with human MV4-11 cells assessed as body weight loss at 5 mg/kg, ip administered every other day for 2 weeks; type: organism-based; settings: in vivo, 336 h
# [40] = Toxicity in NOD/SCID mouse xenografted with human MV4-11 cells assessed as effect on kidney at 5 mg/kg, ip administered every other day for 2 weeks by H and E staining based assay; type: organism-based; settings: in vivo, 336 h
# [41] = Toxicity in NOD/SCID mouse xenografted with human MV4-11 cells assessed as effect on heart at 5 mg/kg, ip administered every other day for 2 weeks by H and E staining based assay; type: organism-based; settings: in vivo, 336 h
# [42] = Toxicity in NOD/SCID mouse xenografted with human MV4-11 cells assessed as aggregation of multinucleated giant cells in spleen at 5 mg/kg, ip administered every other day for 2 weeks by H and E staining based assay; type: organism-based; settings: in vivo, 336 h
# [43] = tested on: MV4-11; experiment: Downregulation of p300 protein level in human MV4-11 cells assessed as fold decrease at 10 nM incubated for 6 hrs by proteomic blotting analysis; type: functional, cell-based
# [44] = Toxicity in NOD/SCID mouse xenografted with human MV4-11 cells assessed as effect on lung at 5 mg/kg, ip administered every other day for 2 weeks by H and E staining based assay; type: organism-based; settings: in vivo, 336 h
# [45] = tested on: THP-1; experiment: Antiproliferative activity against human THP-1 cells
# [46] = tested on: KG-1; experiment: Antiproliferative activity against human KG-1 cells
# [47] = tested on: EOL1; experiment: Antiproliferative activity against human EOL1 cells
# [48] = tested on: MV4-11; experiment: Antitumor activity against human MV4-11 cells xenografted in NOD-SCID mouse assessed as tumor growth inhibition at 10 mg/kg, po QD for 2 weeks; type: functional; settings: MV4-11, 336 h, read-out: TGI
Compound,Activity [1],Activity [2],Activity [5],Activity [7],Activity [8],Activity [9],IC50 [10],Activity [12],Activity [13],Activity [14],Activity [16],IC50 [17],inhibition in vivo at 5 mg/kg [18],Activity [19],Activity [20],Activity [21],Activity [23],Activity [24],IC50 [25],Activity [26],other results
Cc1noc(C)c1-c1ccc2c(c1)nc([C@@H]1CCCC(=O)N1c1ccc(F)c(F)c1)n2C1CCN(CC(=O)Nc2ccc(-c3ccc(CNc4cccc5c4C(=O)N(C4CCC(=O)NC4=O)C5=O)cc3)nc2)CC1 (stereo partly drawn),inactive,Active,Active,Active,Active,inactive,0.0269 µM,inactive,inactive,Active,Active,0.0018 µM,88%,inactive,inactive,inactive,inactive,inactive,0.0046 µM,inactive,Activity [3]: Non-Toxic; Activity [4]: Active; Activity [6]: Toxic; Activity [11]: Active; Activity [15]: Non-Toxic; Activity [22]: Non-Toxic; Activity [27]: Active; Activity [28]: Active; Activity [29]: Non-Toxic; Activity [30]: Active; Activity [31]: inactive; inhibition in vivo at 2 mg/kg [32]: 53%; Activity [33]: Active; Activity [34]: Active; Activity [35]: inactive; Activity [36]: Toxic
Cc1noc(C)c1-c1ccc2c(c1)nc([C@@H]1CCCC(=O)N1c1ccc(F)c(F)c1)n2C1CCN(CC(=O)Nc2cnc(-c3ccc(CNc4cccc5c4C(=O)N(C4CCC(=O)NC4=O)C5=O)cc3)nc2)CC1 (stereo partly drawn),inactive,Active,Active,Active,Active,inactive,0.047 µM,inactive,inactive,Active,Active,0.0009 µM,93%,inactive,inactive,inactive,inactive,inactive,0.0055 µM,inactive,Activity [37]: Toxic; Activity [38]: Active; Activity [39]: Non-Toxic; Activity [40]: Non-Toxic; Activity [27]: Active; Activity [41]: Non-Toxic; Activity [42]: Toxic; Activity [28]: Active; Activity [30]: Active; Activity [31]: inactive; Activity [43]: inactive; Activity [33]: Active; Activity [34]: Active; Activity [35]: inactive; Activity [44]: Non-Toxic
CO[C@H]1CC[C@H](n2c([C@@H]3CCCC(=O)N3c3ccc(F)c(F)c3)nc3cc(-c4c(C)noc4C)ccc32)CC1 [INOBRODIB],–,–,–,–,–,–,0.103 µM,–,–,–,–,0.0204 µM,–,–,–,–,–,–,0.0129 µM,–,IC50 [45]: < 3 µM; IC50 [46]: < 3 µM; IC50 [47]: < 3 µM; inhibition in vivo at 10 mg/kg [48]: 65%
